Reference: patent US20200239530A1, “COMPOUNDS AND METHODS OF MODULATING PROTEIN DEGRADATION” (Vividion Therapeutics, Inc., priority 2017, published 2020)

Target: T1, TRIM33 E3 ubiquitin-protein ligase TRIM33 (Homo sapiens, UniProt Q9UPN9)
T1 construct: Cells were resuspended in cold PBS on ice and sonicated with a probe sonicator to achieve lysis; endogenous in cells
T1 sequence (Q9UPN9 1-1127): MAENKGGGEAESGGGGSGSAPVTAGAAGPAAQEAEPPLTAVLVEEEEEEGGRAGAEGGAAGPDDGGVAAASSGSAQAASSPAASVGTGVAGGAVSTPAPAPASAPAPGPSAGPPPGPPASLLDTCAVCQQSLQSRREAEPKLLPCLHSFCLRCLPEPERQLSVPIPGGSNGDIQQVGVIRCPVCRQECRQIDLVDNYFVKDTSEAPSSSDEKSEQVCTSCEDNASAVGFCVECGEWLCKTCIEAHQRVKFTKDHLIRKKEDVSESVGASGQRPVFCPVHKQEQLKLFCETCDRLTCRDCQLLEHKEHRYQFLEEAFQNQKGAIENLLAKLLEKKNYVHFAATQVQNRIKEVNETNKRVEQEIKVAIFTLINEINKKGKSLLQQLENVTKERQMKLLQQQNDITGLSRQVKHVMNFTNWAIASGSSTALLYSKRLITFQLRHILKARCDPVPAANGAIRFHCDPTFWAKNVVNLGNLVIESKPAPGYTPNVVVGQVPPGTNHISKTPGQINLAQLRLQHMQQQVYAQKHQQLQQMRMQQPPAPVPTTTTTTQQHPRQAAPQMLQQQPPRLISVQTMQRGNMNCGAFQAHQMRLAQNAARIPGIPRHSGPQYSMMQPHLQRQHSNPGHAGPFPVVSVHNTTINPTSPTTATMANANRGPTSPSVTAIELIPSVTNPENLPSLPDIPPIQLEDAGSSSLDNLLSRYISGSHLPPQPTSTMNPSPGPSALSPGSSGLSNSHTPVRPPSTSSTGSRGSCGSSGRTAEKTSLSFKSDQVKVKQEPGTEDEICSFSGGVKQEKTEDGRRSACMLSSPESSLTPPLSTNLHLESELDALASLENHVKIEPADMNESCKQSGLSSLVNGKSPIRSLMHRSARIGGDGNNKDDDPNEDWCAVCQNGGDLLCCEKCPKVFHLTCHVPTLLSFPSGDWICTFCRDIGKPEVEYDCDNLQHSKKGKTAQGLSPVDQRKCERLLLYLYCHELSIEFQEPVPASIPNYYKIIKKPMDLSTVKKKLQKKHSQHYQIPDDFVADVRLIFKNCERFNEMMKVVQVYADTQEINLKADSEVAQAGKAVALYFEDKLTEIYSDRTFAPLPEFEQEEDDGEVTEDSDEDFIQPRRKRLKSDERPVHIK
Assay: Cysteine liganding, probe competition
Type: binding
Procedure, shortened: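 Read-out is loss of desthiobiotin iodoacetamide labelling at cysteines, measured on streptavidin-enriched tryptic peptides. Compound preincubation ran 1 hr at 25° C in PBS lysate holding 5 mg/ml proteome before the probe was added.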

SMILES	KB03_500 uM_percent_inhibition (500 uM, UniProt Q9UPN9) [%]	Liganded (TRIM33 Res# 153, uniprot Q9UPN9)	Liganded (TRIM33 Res# 582, uniprot Q9UPN9)
O=C(CCl)Nc1cc(C(F)(F)F)cc(C(F)(F)F)c1 [KBO3]	86	YES	
COc1ccc2c(c1)CCCN2C(=O)CCl [KB02]			YES
